The values that follow come from paper PMC11641860 (International Journal of Molecular Sciences, 2024).

The structures appear in SMILES notation.

For data set [1], the system named is Caco-2 cells. In words: cells. It is filed as cell-based. The note with it: Homo sapiens; Caco-2, treated for 24 h, mean (SE); read-out: calculated IC50. The procedure:
(§1) To evaluate cell viability, an MTT assay was performed. […] Cell viability was directly proportional to registered absorbance and was expressed as relative viability with respect to vehicle-treated cells.

Data set [2] deals with HEK 293 cells. In words: cells. Particulars: Homo sapiens, HEK293; HEK 293, treated for 24 h, mean (SE); read-out: calculated IC50. The class given is cell-based. Here is the method: as §1
For data set [3], the system named is HaCat cells. The experiment in a line: cells. The class given is cell-based. The note with it: Homo sapiens, treated for 24 h, mean (SE), read-out: calculated IC50. The procedure: as §1
The subject of data set [4] is HepG2 cells. The experiment in a line: cells. It is filed as cell-based. The note with it: Homo sapiens; HepG2, treated for 24 h, mean (SE); read-out: calculated IC50. Here is the method: as §1
For data set [5], the system named is MRC5 cells. The experiment in a line: cells. It is filed as cell-based. The note with it: Homo sapiens; MRC5, treated for 24 h, mean (SE); read-out: calculated IC50. Here is the method: as §1
The test system of data set [6] is p53. The experiment in a line: Western blot of p53. It is filed as cell-based, human. The note with it: HepG2, 24 h, higher concentrations used. The procedure: (§2) Western blot analyses were performed to detect protein levels and the expression of several proteins after treatments with 4-OP. After treatments, cells were mechanically harvested and lysed in a buffer containing the following: 20 mM Tris-HCl, pH 7.5, 150 mM NaCl, 1 mM EDTA, 1 mM dithiothreitol, 0.1% sodium dodecyl sulfate, 1% Triton X-100, 1 mM orthovanadate and an inhibitor cocktail (all from Merck). The protein mixtures were resolved in a polyacrylamide denaturant gel and then electrotransferred to a polyvinylidene difluoride (PVDF) membrane (Microtech, Naples, Italy) by using the Trans-Blot Turbo Transfer System (Bio-Rad Laboratories, Milan, Italy). After a blocking step with 5% skimmed milk in Tris-buffered saline (TBS), membranes were incubated with the following primary antibodies, diluted 1:1000 in T-TBS-1% milk: mouse anti-p53 (Santa Cruz, CA, USA); mouse anti-GRP78 (Invitrogen, Milan, Italy); rabbit anti-LC3 (Invitrogen); mouse anti-caspase 3 (Invitrogen); mouse anti-p62 (Invitrogen); rabbit anti-SOD (Elabscience, Houston, TX, USA); rabbit anti-CAT (Elabscience). For normalization, a mouse anti-GAPDH (Santa Cruz) diluted 1:4000 in T-TBS-1% milk was used.

Data set [7] relates to HepG2 cells. The experiment in a line: Apoptosis: cleaved caspase 3 Western blot and TUNEL assay. It is filed as cell-based, human. Particulars: HepG2, caspase-3 8 h, TUNEL 24 h. Here is the method:
as §2
Microscope observation and image acquisition were performed as described above.
A general note: Immunoblotting shows a protein as a band on a membrane.

Data set [8] relates to XBP1. The experiment in a line: XBP1 splicing detection by conventional PCR. The class given is cell-based, human. The note with it: HepG2, 4 h, 100 μM. Here is the method: To obtain cDNA, 1 μg of RNA was retro-transcribed employing the QuantiTect Reverse Transcription Kit (Qiagen, Milan, Italy). Finally, a conventional PCR was performed to amplify the unspliced and the spliced form for XBP1, with the following primers: 5′-[…]-3′ and 5′-[…]-3′, as previously reported. Amplified cDNA was run on a 2.5% agarose gel and stained with ethidium bromide.

Data set [9] deals with GRP78. In words: Western blot of GRP78 in HepG2 cells. It is filed as cell-based, human. The note with it: HepG2, 24 h, higher induction at 100 μM. Here is the method:
as §2

Data set [10] relates to GRP78. In words: Western blot of GRP78 in MRC5 cells. It is filed as cell-based, human. Particulars: MRC5, 24 h. The procedure: as §2
Data set [11] concerns GRP78. In words: Western blot of GRP78 in Caco-2 cells. It is filed as cell-based, human. The note with it: Caco-2, 24 h. Here is the method:
as §2

The subject of data set [12] is p62, LC3-II. The experiment in a line: Western blot of autophagic markers p62 and LC3-II. It is filed as cell-based, human. The procedure:
as §2

Data set [13] has as its system HepG2 cells. In words: LC3 immunofluorescence staining. It is filed as cell-based, human. The note with it: HepG2, 24 h, compared with vehicle. Here is the method:
Then, coverslips were incubated for 1 h with the anti-LC3 rabbit antibody (1:100, in 1% bovine albumin serum) and then with an anti-rabbit tetramethylrhodamine-conjugated antibody (1:100, in 0.1% bovine serum albumin) (Thermo Fisher Scientific). After washing, coverslips were mounted with Mowiol and observed with an Olympus CKX41 fluorescent microscope (Olympus Italia srl, Segrate, Italy) and processed with the Olympus CKX41 software (cellSens Dimension 1.5).

Data set [14] deals with CAT, SOD. The experiment in a line: Western blot of CAT and SOD. It is filed as cell-based, human. Here is the method: as §2
For data set [15], the system named is type 2 transglutaminase. The experiment in a line: Type 2 transglutaminase activity in Caco-2 cells in Ca2+-free condition. The class given is cell-based, human. The note with it: Caco-2, Ca2+-free condition, preliminary. An excerpt:
It has often been reported that apoptosis induced by EDCs can be caused by an unsolved ER-stress.

In general, IC50 refers to the concentration needed to halve the response being measured. Regarding `CCCCCCCCCc1ccc(O)cc1` [4-NP, 4-nonylphenol], the IC50 in data set [1] is 93.3 µM; in [2], 62.6 µM; in data set [3], 77.4 µM; in data set [4], 83.3 µM; in data set [5], 75.8 µM.

Turning to `CCCCCCCCc1ccc(O)cc1` [4-OP, 4-octylphenol], the p53 expression entry in data set [6] is on record as “decreased”. For the same molecule, in data set [7], the “apoptosis (cleaved caspase 3, chromatin fragmentation)” value is recorded as “able to induce apoptosis”. Also, in data set [8], the XBP1 spliced form entry was “splicing was clear”. In addition, the figures for the GRP78 expression entry in [9], in data set [10] and in [11] were “increase in a dose-dependent manner”, “markedly induced” and “less evident”, respectively. In addition, the p62 level entry in data set [12] (HepG2, 4 h) is “decreased”. The “LC3-II level on adding Baf A1” value in [12] (HepG2, 4 h 4-OP then further 20 h Baf A1 50 nM) was “further accumulation of LC3-II”. Moreover, in [12] (HepG2, 24 h), the LC3-II level result is recorded as “increased”. Moreover, the “autophagosomes (LC3 perinuclear puncta)” value in [13] was “accumulation of autophagosomes”. The CAT level result in data set [14] (HepG2, 4 h) is given as “did not vary”. The SOD level result in [14] (HepG2, 4 h, 100 μM) was “reduction”. The SOD expression level entry in data set [14] (HepG2, 18 h, 25 μM, vs vehicle-treated cells) is listed as “lower”; in data set [14] (HepG2, 18 h, 50 μM) it was “increased”. Besides, in data set [14] (HepG2, 18 h, 50 μM, compared to the control), the CAT protein level entry was “significantly more expressed”.

Regarding `C[C@H](CCC(=O)O)C[C@H](C)C[C@H](C)C(=O)/C=C(\O)[C@H](C)C[C@H](C)C/C=C/[C@@H](C)[C@@H](O)[C@@H](C)[C@@H](O)C[C@@H]1CC[C@@](C)([C@H]2CC[C@@](C)([C@@H](C)O)O2)O1` [ionomycin], the “increase of transglutaminase activity” value in [15] is “did not increase”.
